Data: ChEMBL document CHEMBL4229501, “Synthesis, characterization and nociceptive screening of new VV-hemorphin-5 analogues” (Bioorg Med Chem Lett, 2018)
Activity calls are given as the source filed them. The rule behind the calls is not given here. Square brackets hold non-standard residues; d marks the D form. Peptide text beside a SMILES is read from it. Aib = CC(C)(N)C(=O)O

Columns and labels:
[1] = Anodic potential of the compound at pH 6.02 by differential pulse voltammetry; type: physicochemical
[2] = Anodic potential of the compound at pH 6.86 by differential pulse voltammetry; type: physicochemical
[3] = Anodic potential of the compound at pH 9.20 by differential pulse voltammetry; type: physicochemical; conditions: pH 9.2
[4] = Anodic potential of the compound at pH 5.02 by differential pulse voltammetry; type: physicochemical
[5] = Dissociation constant, pKa of the compound at pH 5.02 to 10.20 by cyclic voltammetry; type: physicochemical
[6] = Anodic potential of the compound at pH 10.20 by differential pulse voltammetry; type: physicochemical; conditions: pH 10.2
[7] = Anodic potential of the compound at pH 8.10 by differential pulse voltammetry; type: physicochemical; conditions: pH 8.1
Mus musculus [8] = experiment: Antinociceptive activity in albino ICR mouse assessed as decrease in number of acetic acid-induced abdominal constriction at 25 to 100 ug/mouse, icv administered 5 mins prior to acetic acid challenge and measured every 5 mins for 30 mins post acetic acid challenge; type: functional, organism-based
Mus musculus [9] = experiment: Antinociceptive activity in albino ICR mouse assessed as decrease in number of acetic acid-induced abdominal constriction at 50 to 100 ug/mouse, icv administered 5 mins prior to acetic acid challenge and measured every 5 mins for 30 mins post acetic acid challenge; type: functional, organism-based
Mus musculus [10] = experiment: Antinociceptive activity in albino ICR mouse assessed as decrease in number of acetic acid-induced abdominal constriction at 25 ug/mouse, icv administered 5 mins prior to acetic acid challenge and measured every 5 mins for 30 mins post acetic acid challenge; type: functional, organism-based
Mus musculus [11] = experiment: Antinociceptive activity in albino ICR mouse assessed as decrease in number of acetic acid-induced abdominal constriction at 100 ug/mouse, icv administered 5 mins prior to acetic acid challenge and measured every 5 mins for 10 mins post acetic acid challenge; type: functional, organism-based
Mus musculus [12] = experiment: Antinociceptive activity in albino ICR mouse assessed as decrease in number of acetic acid-induced abdominal constriction at 25 to 50 ug/mouse, icv administered 5 mins prior to acetic acid challenge and measured every 5 mins for 30 mins post acetic acid challenge; type: functional, organism-based
Mus musculus [13] = experiment: Antinociceptive activity in albino ICR mouse assessed as decrease in number of acetic acid-induced abdominal constriction at 50 ug/mouse, icv administered 5 mins prior to acetic acid challenge and measured every 5 mins for 30 mins post acetic acid challenge; type: functional, organism-based
Mus musculus [14] = experiment: Antinociceptive activity in albino ICR mouse assessed as decrease in number of acetic acid-induced abdominal constriction at 100 ug/mouse, icv administered 5 mins prior to acetic acid challenge and measured at 5 mins post acetic acid challenge; type: functional, organism-based
Mus musculus [15] = experiment: Antinociceptive activity in albino ICR mouse assessed as decrease in number of acetic acid-induced abdominal constriction at 100 ug/mouse, icv administered 5 mins prior to acetic acid challenge and measured every 5 mins for 15 mins post acetic acid challenge; type: functional, organism-based

Activity [1] | Activity [2] | Activity [3] | Activity [4] | pKa [5] | Activity [6] | Activity [7] | Compound | also measured
0.16 V | 0.11 V | 0.067 V | 0.213 V | 8.01 | 0.06 V | 0.062 V | CC[C@H](C)[C@H](N)C(=O)N[C@H](C(=O)N[C@H](C(=O)N[C@@H](Cc1ccc(O)cc1)C(=O)N1CCC[C@H]1C(=O)N[C@@H](Cc1c[nH]c2ccccc12)C(=O)N[C@H](C(=O)N[C@@H](CCC(N)=O)C(N)=O)[C@@H](C)O)C(C)C)C(C)C | 
0.175 V | 0.101 V | 0.031 V | 0.232 V | 8.17 | 0.03 V | 0.025 V | CC(C)[C@H](NC(=O)[C@@H](NC(=O)C(C)(C)N)C(C)C)C(=O)N[C@@H](Cc1ccc(O)cc1)C(=O)N1CCC[C@H]1C(=O)N[C@@H](Cc1c[nH]c2ccccc12)C(=O)N[C@H](C(=O)N[C@@H](CCC(N)=O)C(N)=O)[C@@H](C)O (H-[Aib]VVYPWTQ-NH2) | Activity (Mus musculus [8]): inactive
0.151 V | 0.048 V | 0.046 V | 0.225 V | 7.13 | 0.046 V | 0.046 V | H-VVYPWTQ-NH2 | Activity (Mus musculus [9]): Active; Activity (Mus musculus [10]): inactive
 |  |  |  |  |  |  | CC[C@H](C)[C@@H](N)C(=O)N[C@H](C(=O)N[C@H](C(=O)N[C@@H](Cc1ccc(O)cc1)C(=O)N1CCC[C@H]1C(=O)N[C@@H](Cc1c[nH]c2ccccc12)C(=O)N[C@H](C(=O)N[C@@H](CCC(N)=O)C(N)=O)[C@@H](C)O)C(C)C)C(C)C | Activity (Mus musculus [11]): inactive; Activity (Mus musculus [12]): Dose-dependent effect
0.207 V | 0.15 V | 0.008 V | 0.225 V | 9.23 | 0.001 V | 0.085 V | CC(C)[C@H](N)C(=O)N[C@H](C(=O)N[C@@H](Cc1ccc(O)cc1)C(=O)N1CCC[C@H]1C(=O)N[C@@H](Cc1c[nH]c2ccccc12)C(=O)N[C@H](C(=O)N[C@@H](CN)C(N)=O)[C@@H](C)O)C(C)C | 
0.15 V | 0.125 V | 0.055 V | 0.211 V | 8.24 | 0.057 V | 0.071 V | CC(C)[C@H](N)C(=O)N[C@H](C(=O)N[C@@H](Cc1ccc(O)cc1)C(=O)N1CCC[C@H]1C(=O)N[C@@H](Cc1c[nH]c2ccccc12)C(=O)N[C@H](C(=O)N[C@@H](CCCCN)C(N)=O)[C@@H](C)O)C(C)C | 
 |  |  |  |  |  |  | CC(C)[C@H](N)C(=O)N[C@H](C(=O)N[C@@H](Cc1ccc(O)cc1)C(=O)N1CCC[C@H]1C(=O)N[C@@H](Cc1c[nH]c2ccccc12)C(=O)N[C@H](C(=O)N[C@H](CCCN)C(N)=O)[C@@H](C)O)C(C)C | Activity (Mus musculus [13]): Active; Activity (Mus musculus [10]): inactive
 |  |  |  |  |  |  | CC(C)[C@H](N)C(=O)N[C@H](C(=O)N[C@@H](Cc1ccc(O)cc1)C(=O)N1CCC[C@H]1C(=O)N[C@@H](Cc1c[nH]c2ccccc12)C(=O)N[C@H](C(=O)N[C@H](CCCCN)C(N)=O)[C@@H](C)O)C(C)C | Activity (Mus musculus [11]): Active; Activity (Mus musculus [10]): Active
0.175 V | 0.117 V | 0.082 V | 0.225 V | 7.83 | 0.079 V | 0.075 V | CC(C)[C@H](N)C(=O)N[C@H](C(=O)N[C@@H](Cc1ccc(O)cc1)C(=O)N1CCC[C@H]1C(=O)N[C@@H](Cc1c[nH]c2ccccc12)C(=O)N[C@H](C(=O)N[C@@H](CCCN)C(N)=O)[C@@H](C)O)C(C)C | 
 |  |  |  |  |  |  | CC(C)[C@H](N)C(=O)N[C@H](C(=O)N[C@@H](Cc1ccc(O)cc1)C(=O)N1CCC[C@H]1C(=O)N[C@@H](Cc1c[nH]c2ccccc12)C(=O)N[C@H](C(=O)N[C@H](CN)C(N)=O)[C@@H](C)O)C(C)C | Activity (Mus musculus [8]): Active
 |  |  |  |  |  |  | CC(C)[C@H](N)C(=O)N[C@H](C(=O)N[C@@H](Cc1ccc(O)cc1)C(=O)N1CCC[C@H]1C(=O)N[C@@H](Cc1c[nH]c2ccccc12)C(=O)N[C@H](C(=O)N[C@H](CCN)C(N)=O)[C@@H](C)O)C(C)C | Activity (Mus musculus [14]): Active; Activity (Mus musculus [12]): Dose-dependent effect; Activity (Mus musculus [15]): inactive
0.13 V | 0.07 V | 0.001 V | 0.23 V | 8.12 | 0 V | 0.009 V | CC(C)[C@H](N)C(=O)N[C@H](C(=O)N[C@@H](Cc1ccc(O)cc1)C(=O)N1CCC[C@H]1C(=O)N[C@@H](Cc1c[nH]c2ccccc12)C(=O)N[C@H](C(=O)N[C@@H](CCN)C(N)=O)[C@@H](C)O)C(C)C | 
